Measured values: US20240270762A1, “PENICILLIN-BINDING PROTEIN INHIBITORS” (priority 2021, published 2024)

Legend:
[1] = biological target: T1, A. baumannii PBP1a (Acinetobacter baumannii, UniProt A0ABX6CK30); assay: Bocillin-FL competition binding via gel filtration, A. baumannii PBP1a; settings: competition binding assay using Bocillin-FL via gel filtration; read-out: A. baumannii PBP1a Potency
T1 sequence (A0ABX6CK30 1-851): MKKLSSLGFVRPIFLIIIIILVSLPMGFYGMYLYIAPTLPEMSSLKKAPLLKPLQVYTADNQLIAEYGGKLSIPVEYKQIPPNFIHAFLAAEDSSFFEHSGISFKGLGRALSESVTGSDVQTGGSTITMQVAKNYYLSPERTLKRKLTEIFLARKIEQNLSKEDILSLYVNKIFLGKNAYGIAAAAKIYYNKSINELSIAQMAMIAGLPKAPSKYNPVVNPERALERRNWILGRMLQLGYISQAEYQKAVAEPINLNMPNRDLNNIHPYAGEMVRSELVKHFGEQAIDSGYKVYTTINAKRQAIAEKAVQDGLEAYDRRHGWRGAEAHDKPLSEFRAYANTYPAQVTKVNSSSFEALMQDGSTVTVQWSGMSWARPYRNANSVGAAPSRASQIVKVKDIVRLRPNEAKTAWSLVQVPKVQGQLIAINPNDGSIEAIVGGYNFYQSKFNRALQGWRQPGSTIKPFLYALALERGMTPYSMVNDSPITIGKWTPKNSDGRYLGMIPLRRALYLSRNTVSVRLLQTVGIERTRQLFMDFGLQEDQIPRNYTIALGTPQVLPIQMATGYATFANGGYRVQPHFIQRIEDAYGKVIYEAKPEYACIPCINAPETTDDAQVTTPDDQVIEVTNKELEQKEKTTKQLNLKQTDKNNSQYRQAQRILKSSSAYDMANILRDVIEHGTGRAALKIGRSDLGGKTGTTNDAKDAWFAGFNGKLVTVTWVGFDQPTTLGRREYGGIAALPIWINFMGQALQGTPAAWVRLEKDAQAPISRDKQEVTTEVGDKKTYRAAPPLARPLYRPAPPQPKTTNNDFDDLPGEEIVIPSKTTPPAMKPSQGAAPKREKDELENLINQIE
Protocol: (§1) Affinity to A. baumannii PBP1a and PBP2 was assessed a competitive equilibrium binding assay using Bocillin-FL as the reporter molecule. Enzyme was pre-incubated with increasing concentrations of inhibitors, prior to addition of Bocillin and further incubation for 15 minutes. PBP bound with Bocillin-FL was separated by gel filtration using 96-well Zeba Spin size exclusion plates, and the fluorescence measured. The inhibitor affinity (reported as the EC50) was determined by plotting the fraction of PBP bound with Bocillin-FL at each inhibitor concentration against the inhibitor concentration, and fitting the data to the following equation:
(§2) [formula] • where y is the fraction bound at a given inhibitor concentration, ymin is the fraction bound when the enzyme is completely inactivated, ymax is the maximum (uninhibited) fraction bound, n is the Hill coefficient, and x is the inhibitor concentration.

[2] = biological target: A. baumannii PBP2 (Acinetobacter baumannii, UniProt D0C8Z9); assay: Bocillin-FL competition binding via gel filtration, A. baumannii PBP2
Protocol: as §1, §2

[3] = tested on: B. thailandensis ATCC 700388; assay: microbe, parasite or virus in culture; format: cell-based; settings: Burkholderia thailandensis, ATCC700388, read-out: Minimum inhibitory concentration (MIC), B. thailandensis ATCC 700388
[4] = tested on: B. humptydooensis ATCC BAA-2767; assay: microbe, parasite or virus in culture; format: cell-based; settings: Burkholderia humptydooensis, ATCCBAA2767, read-out: Minimum inhibitory concentration (MIC), B. humptydooensis ATCC BAA-2767

Chain of A. baumannii PBP2 (D0C8Z9 whole entry): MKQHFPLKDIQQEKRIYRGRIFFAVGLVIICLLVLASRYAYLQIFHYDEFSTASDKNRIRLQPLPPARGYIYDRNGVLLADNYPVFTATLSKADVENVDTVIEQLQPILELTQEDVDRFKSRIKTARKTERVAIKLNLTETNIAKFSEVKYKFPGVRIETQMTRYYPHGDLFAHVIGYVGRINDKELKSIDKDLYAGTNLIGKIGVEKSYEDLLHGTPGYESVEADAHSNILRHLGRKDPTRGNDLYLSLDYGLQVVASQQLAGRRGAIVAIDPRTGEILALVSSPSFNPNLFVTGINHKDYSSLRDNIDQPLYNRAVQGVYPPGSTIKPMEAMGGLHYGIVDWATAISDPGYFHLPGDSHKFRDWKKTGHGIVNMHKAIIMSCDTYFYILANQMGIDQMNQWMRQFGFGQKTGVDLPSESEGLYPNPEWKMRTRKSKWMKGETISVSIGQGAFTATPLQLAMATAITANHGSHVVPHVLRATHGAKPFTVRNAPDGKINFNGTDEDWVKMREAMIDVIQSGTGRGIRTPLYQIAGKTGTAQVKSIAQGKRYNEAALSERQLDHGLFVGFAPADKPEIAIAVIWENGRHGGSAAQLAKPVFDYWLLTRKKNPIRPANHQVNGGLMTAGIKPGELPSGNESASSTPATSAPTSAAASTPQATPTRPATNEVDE

Row | Compound | EC50 [1] [µM] | EC50 [2] [µM] | MIC [3] [µg/mL] | MIC [4] [µg/mL]
1 | O=C(O)c1c(F)ccc2c1OB(O)[C@@H](NC(=O)C(NC(=O)N1CCN(C3CCN(Cc4ccc(F)c(O)c4)CC3)C1=O)c1cc(F)c(O)c(O)c1Cl)C2 (single isomer, unassigned) [Example 606] | < 10 | 10 to 50 | < 1 | < 1
2 | O=C(O)c1c(F)ccc2c1OB(O)[C@@H](NC(=O)[C@H](NC(=O)N1CCN(C3CCN(Cc4cc(O)cc(F)c4)CC3)C1=O)c1cc(F)c(O)c(O)c1Cl)C2 (single isomer, unassigned) [Example 607] | < 10 | 10 to 50 | < 1 | < 1
3 | O=C(O)c1c(F)ccc2c1OB(O)[C@@H](NC(=O)[C@H](NC(=O)N1CCN(C3CCN(Cc4cc(O)ccc4F)CC3)C1=O)c1cc(F)c(O)c(O)c1Cl)C2 (single isomer, unassigned) [Example 608] | < 10 | 10 to 50 | < 1 | < 1
4 | O=C(O)c1c(F)ccc2c1OB(O)[C@@H](NC(=O)C(NC(=O)N1CCN(C3CCN(Cc4ccc(O)cc4F)CC3)C1=O)c1cc(F)c(O)c(O)c1Cl)C2 (single isomer, unassigned) [Example 611] | < 10 | 10 to 50 | < 1 | < 1
5 | NCc1cccc(CN2CCC(N3CCN(C(=O)N[C@@H](C(=O)N[C@H]4Cc5ccc(F)c(C(=O)O)c5OB4O)c4cc(F)c(O)c(O)c4Cl)C3=O)CC2)c1 (single isomer, unassigned) [Example 613] | 10 to 50 | 10 to 50 | < 1 | < 1
6 | O=C(O)c1c(F)ccc2c1OB(O)[C@@H](NC(=O)C(NC(=O)N1CCN(C3CCN(S(=O)(=O)c4cc(O)cc(O)c4)CC3)C1=O)c1cc(F)c(O)c(O)c1Cl)C2 (stereo partly drawn) [Example 600, (3R)-3-(2-(2-chloro-5-fluoro-3,4-dihydroxyphenyl)-2-(3-(1-((3,5-dihydroxyphenyl)sulfonyl)piperidin-4-yl)-2-oxoimidazolidine-1-carboxamido)acetamido)-7-fluoro-2-hydroxy-3,4-dihydro-2H-benzo[e][1,2]oxaborinine-8-carboxylic acid] | < 10 | < 10 | > 128 | > 128
